Key:
[1] = test system: export of VSV-G protein from the ER; type: cell-based; settings: for morphological effect on VSV-G export/transport: 45 min at 32°C
[2] = test system: export of VSV-G protein from the ER; settings: cited from earlier work
[3] = test system: ER to Golgi transport of VSV-G protein; type: cell-based

With C/C=C(/C)C(=O)O[C@H]1C(C)=C2[C@H]([C@@H]1OC(=O)CCCCCCC)[C@@](C)(OC(C)=O)C[C@H](OC(=O)CCC)[C@@]1(O)[C@H]2OC(=O)[C@@]1(C)O [thapsigargan] as the molecule, how does the “effect on VSV-G export in vitro” value [1] read?
The value was “no effectof the drug”.

For C=C1[C@@H](O)[C@@H]2O[C@]3(CC[C@H](/C=C/[C@@H](C)[C@@H]4CC(C)=C[C@@]5(O[C@H](C[C@@](C)(O)C(=O)O)CC[C@H]5O)O4)O3)CC[C@H]2O[C@@H]1[C@@H](O)C[C@H](C)[C@H]1O[C@@]2(CCCCO2)CC[C@H]1C [OKA, okadaic acid], which “effect on VSV-G protein exit from the ER” value [2] is on record?
Its value is “potently inhibit VSV-G protein exit from the ER”.

For AlCl3, which “effect on processing of VSV-G to the endo HR form” value [3] is on record?
Its value is “no effect”.

And the “morphological effect on VSV-G export/transport” value [1]?
The value was “did not inhibit”.

With “guanosine-5'-O-(3-thiophospbate) [GTPTS]” as the molecule, how does the “VSV-G containing punctate intermediates that contain rab1B” value [1] read?
Its value is < 10%.

What about the “morphological effect on VSV-G export/transport” value [1] of the same molecule?
Its value is “concentrated in numerous small, punctate structures”.
